Test results from patent US5519040A, “Substituted thiazole sulfonamides as antiglaucoma agents” (Allergan, priority 1994, dated 1996).

Experiments:
[1] = Cysteine reactivity probe assay (HPLC); design: unit not given here; settings: cysteine in phosphate buffer pH 7.4, HPLC; unit not given
Description: An additional measurement made on some compounds of the invention is the cysteine reactivity. This reactivity measurement gives an indication of the likelihood that a compound will react with cysteine residues in the eye, and so is a measure of the likelihood of development of sensitization in the eye to that compound. […] In general, substituents that are more highly electron withdrawing, such as sulfonyl or carbonyl moieties adjacent to the thiazole ring, increase cysteine reactivity.
2. Cysteine reactivity was measured by the following probe assay procedure. Three stock solutions of: A) the CAI compound to be tested in […] phosphate buffer; B) cysteine ([…]) in 50 mM phosphate buffer at pH 7.4; and C) phosphate buffer (50 mM) at pH 7.4, were prepared. Each solution was deoxygenated by bubbling with N2 for 10-15 min.
Reaction mixtures were prepared in triplicate by mixing equal volumes (1 mL) of two stock solutions as follows:
Hydrolytic or other chemical reactivity was detected by comparison of solutions I and II. Cysteine related reactions were detected by comparison of solutions II and III. All samples were assayed using HPLC under constant conditions and over a short period of time to minimize experimental variations in peak heights not related to CAI concentration differences. Each of the three solutions were assayed in sequence to give three sets of experimental values: Ia, IIa, IIIa, Ib, IIb, IIIb, Ic, IIc, IIIc and each set was compared separately. Mean and standard deviations of the three sets were recorded.

[2] = target: T1, (Homo sapiens, UniProt P00918); experiment: Carbonic anhydrase activity, micromethod of Maren (time to lower pH of CO2-saturated carbonate/bicarbonate buffer, phenol red endpoint); assay type: biochemical; settings: pure enzyme from human erythrocyte; 0°-4° C.; pH 9.9 to 6.8
T1 construct: pure CA11 enzyme from human erythrocyte; from tissue; host or cells: human erythrocytes (purified enzyme)
Description: 1. Carbonic anhydrase activity was assayed according to the micromethod of Maren (J. PharmacoI. Exptl. Therap., 130, 26-29, 1960). All solutions and reagents were maintained at 0°-4° C. The final assay mixture contained 16 mM phenol red, added enzyme and 62.5 mM sodium carbonate/bicarbonate. Its volume was kept constant at 0.8 mL. The time required for the added enzyme to lower the pH of CO2-saturated carbonate/bicarbonate buffer from pH 9.9 to 6.8 was measured using the color change of phenol red as endpoint. T1 is the time recorded for the reaction containing no enzyme. T2 is the time recorded for the reaction containing pure CA11 enzyme from human erythrocyte, or an unknown amount in a sample. Enzyme activities (unit) were calculated using the formula:
Unit/ug=(T1 -T2)(T2 *ug protein used in assay)
IC50 of a carbonic anhydrase inhibitor is the concentration that lowers the enzyme activity to half.

## CCCCOc1ncc(S(N)(=O)=O)s1 [2-(1-Butoxy)-5-thiazole sulfonamide]
[1]
  Cysteine reactivity: < 0.00005
[2]
  IC50: 16 nM

## CCCCC#Cc1ncc(S(N)(=O)=O)s1 [2-(1-Hexynyl)-5-thiazole sulfonamide]
[1]
  Cysteine reactivity: 0.001
[2]
  IC50: 7.7 nM

## CCCCCC(O)c1ncc(S(N)(=O)=O)s1 (stereo not shown) [2-(1-Hydroxyhexyl)-5-thiazole sulfonamide]
[2]
  IC50: 10 nM

## NS(=O)(=O)c1cnc(C(=O)C2CC2)s1 [2-(1-Ketocyclopropyl)-5-thiazole sulfonamide]
[1]
  Cysteine reactivity: < 0.000024
[2]
  IC50: 3.5 nM

## COCOCC(=O)c1ncc(S(N)(=O)=O)s1 [2-(2-(methoxymethoxy)ethanoyl)-5-thiazole sulfonamide]
[2]
  IC50: 10.3 nM

## CN(C)CCCC(=O)c1ncc(S(N)(=O)=O)s1 [2-(4-(N,N-dimethyl)aminobutanoyl)-5-thiazole sulfonamide]
[2]
  IC50: 26 nM

## CCS(=O)(=O)c1ncc(S(N)(=O)=O)s1 [2-(Ethylsulfonyl)-5-thiazole sulfonamide, 2-Ethylsulfonyl-5-thiazole sulfonamide]
[1]
  Cysteine reactivity: reactive
[2]
  IC50: 6.7 nM

## CCSc1ncc(S(N)(=O)=O)s1 [2-(Ethylthio)-5-thiazole sulfonamide, 2-Ethylthio-5-thiazole sulfonamide]
[1]
  Cysteine reactivity: < 0.0000024
[2]
  IC50: 6.3 nM

## CN(C)CCN(C)S(=O)(=O)c1ncc(S(N)(=O)=O)s1 [2-(N-Methyl-N-(dimethylamino)ethyl)sulfamyl-5-thiazole sulfonamide]
[1]
  Cysteine reactivity: reactive
[2]
  IC50: 14.5 nM

## CC(C)(C)NS(=O)(=O)c1ncc(S(N)(=O)=O)s1 [2-(N-t-butylsulfamyl)-5-thiazole sulfonamide]
[2]
  IC50: 5.3 nM

## CCCCCC(=O)c1ncc(S(N)(=O)=O)s1 [2-Hexanoyl-5-thiazole sulfonamide, 2-(1-Hexanoyl)-5-thiazole sulfonamide]
[1]
  Cysteine reactivity: 0.00007
[2]
  IC50: 3.5 nM

## CCCCCCc1ncc(S(N)(=O)=O)s1 [2-Hexyl-5-thiazole sulfonamide, 2-(1-Hexyl)-5-thiazole sulfonamide]
[2]
  IC50: 20.6 nM

## NS(=O)(=O)c1cnc(-c2ccccc2)s1 [2-Phenyl-5-thiazole sulfonamide]
[2]
  IC50: 20 nM

## NS(=O)(=O)c1cnc([S+]([O-])c2ccccc2)s1 (stereo not shown) [2-Phenylsulfinyl-5-thiazole sulfonamide]
[1]
  Cysteine reactivity: reactive
[2]
  IC50: 12.7 nM

## NS(=O)(=O)c1cnc(S(=O)(=O)c2ccccc2)s1 [2-Phenylsulfonyl-5-thiazole sulfonamide]
[1]
  Cysteine reactivity: reactive
[2]
  IC50: 5.5 nM

## NS(=O)(=O)c1cnc(Sc2ccccc2)s1 [2-Phenylthio-5-thiazole sulfonamide, 2-Thiophenyl-5-thiazole sulfonamide]
[1]
  Cysteine reactivity: N.R.
[2]
  IC50: 5.5 nM

## NS(=O)(=O)c1nc2c(s1)CCCC2 [2-Sulfamyl-4,5,6,7-tetrahydrobenzothiazole]
[2]
  IC50: 15 nM

## NS(=O)(=O)c1nccs1 [2-Thiazole sulfonamide]
[1]
  Cysteine reactivity: N.R.
[2]
  IC50: 61 nM

## COc1ccc(-c2csc(S(N)(=O)=O)n2)cc1 [4-(4-Methoxyphenyl)-2-thiazole sulfonamide]
[2]
  IC50: 33 nM

## CCOC(=O)c1csc(S(N)(=O)=O)n1 [4-Carboethoxy-2-thiazole sulfonamide, 4-carboethoxy-2-thiazole sulfonamide]
[1]
  Cysteine reactivity: < 0.000005
[2]
  IC50: 77 nM

## Cc1csc(S(N)(=O)=O)n1 [4-Methyl-2-thiazole sulfonamide]
[1]
  Cysteine reactivity: 0.00005
[2]
  IC50: 120 nM

## NS(=O)(=O)c1nc(-c2ccccc2)cs1 [4-Phenyl-2-thiazole sulfonamide]
[2]
  IC50: 20 nM

## CN1CCN(S(=O)(=O)c2ncc(S(N)(=O)=O)s2)CC1 [4-methyl-1-(2-(5-sulfamylthiazoyl)sulfonyl)piperazine]
[1]
  Cysteine reactivity: reactive
[2]
  IC50: 9.3 nM

## CCCCC#Cc1cnc(S(N)(=O)=O)s1 [5-(1-Hexynyl)-2-thiazole sulfonamide]
[1]
  Cysteine reactivity: 0.00019
[2]
  IC50: 5.6 nM

## COC(=O)CCSc1cnc(S(N)(=O)=O)s1 [5-(2-Carbomethoxyethyl)thio-2-thiazole sulfonamide]
[2]
  IC50: 9.1 nM

## NS(=O)(=O)c1ncc(SCCO)s1 [5-(2-Hydroxyethyl)thio-2-thiazole sulfonamide]
[2]
  IC50: 6.6 nM

## CC(=O)OCCCC(=O)c1cnc(S(N)(=O)=O)s1 [5-(4-acetoxybutanoyl)-2-thiazole sulfonamide]
[1]
  Cysteine reactivity: reactive
[2]
  IC50: 8.4 nM

## CCSc1cnc(S(N)(=O)=O)s1 [5-(Ethylthio)-2-thiazole sulfonamide]
[1]
  Cysteine reactivity: 0.000024
[2]
  IC50: 4.2 nM

## NS(=O)(=O)c1ncc(Sc2ccccc2)s1 [5-(Phenylthio)-2-thiazole sulfonamide]
[1]
  Cysteine reactivity: 0.005
[2]
  IC50: 2.7 nM

## NS(=O)(=O)c1ncc(C(=O)c2ccccc2)s1 [5-Benzoyl-2-thiazole sulfonamide]
[1]
  Cysteine reactivity: reactive
[2]
  IC50: 5 nM

## NS(=O)(=O)c1ncc(Cc2ccccc2)s1 [5-Benzyl-2-thiazole sulfonamide]
[2]
  IC50: 9.3 nM

## NS(=O)(=O)c1ncc(Br)s1 [5-Bromo-2-thiazole sulfonamide]
[2]
  IC50: 7.8 nM

## NS(=O)(=O)c1ncc(Cl)s1 [5-Chloro-2-thiazole sulfonamide]
[1]
  Cysteine reactivity: 0.00002
[2]
  IC50: 5.9 nM

## COc1ccc(-c2nc(S(N)(=O)=O)sc2Cl)cc1 [5-Chloro-4-(4-methoxyphenyl)-2-thiazole sulfonamide]
[2]
  IC50: 30 nM

## CC[S+]([O-])c1cnc(S(N)(=O)=O)s1 (stereo not shown) [5-Ethylsufinyl-2-thiazole sulfonamide, 5-Ethylsulfinyl-2-thiazole sulfonamide]
[1]
  Cysteine reactivity: reactive
[2]
  IC50: 11.4 nM

## Cc1sc(S(N)(=O)=O)nc1-c1ccccc1 [5-Methyl-4-phenyl-2-thiazole sulfonamide]
[1]
  Cysteine reactivity: N.R.
[2]
  IC50: 84 nM

## NS(=O)(=O)c1ncc(-c2ccccc2)s1 [5-Phenyl-2-thiazole sulfonamide]
[2]
  IC50: 6 nM

## NS(=O)(=O)c1ncc(S(=O)(=O)c2ccccc2)s1 [5-Phenylsulfonyl-2-thiazole sulfonamide, 5-(Phenylsulfonyl)-2-thiazole sulfonamide]
[1]
  Cysteine reactivity: reactive
[2]
  IC50: 6 nM
